Experimental data as given in the NIST ThermoML archive (doi:10.1016/j.jct.2016.09.041).
± gives the expanded uncertainty stated by the source.

Assay: molar heat capacity at constant pressure
Conditions: 101.33 kPa, Crystal, Small (less than 1 g) adiabatic calorimetry

N[C@@H](Cc1c[nH]c2ccccc12)C(=O)O [L-tryptophan]
Conditions	molar heat capacity at constant pressure [J/K/mol]
5 K	0.6568 ± 0.042
7.14 K	1.912 ± 0.091
7.31 K	2.029 ± 0.1
7.49 K	2.253 ± 0.1
7.66 K	2.22 ± 0.1
7.83 K	2.345 ± 0.11
8.01 K	2.511 ± 0.12
8.17 K	2.719 ± 0.12
8.33 K	2.893 ± 0.13
8.49 K	3.026 ± 0.13
8.64 K	3.118 ± 0.14
8.8 K	3.193 ± 0.14
8.95 K	3.5 ± 0.16
9.1 K	3.492 ± 0.16
9.25 K	3.783 ± 0.17
9.39 K	4.024 ± 0.17
9.54 K	4.041 ± 0.17
9.69 K	4.141 ± 0.18
9.83 K	4.34 ± 0.19
9.98 K	4.506 ± 0.2
10 K	4.49 ± 0.17
10.17 K	4.656 ± 0.2
10.41 K	4.889 ± 0.21
10.66 K	5.08 ± 0.22
10.9 K	5.363 ± 0.23
11.14 K	5.712 ± 0.25
11.39 K	5.978 ± 0.26
11.63 K	6.153 ± 0.26
11.88 K	6.419 ± 0.27
12.12 K	6.768 ± 0.29
12.37 K	7.009 ± 0.3
12.62 K	7.325 ± 0.31
12.87 K	7.591 ± 0.32
13.12 K	7.874 ± 0.33
13.37 K	8.132 ± 0.34
13.62 K	8.481 ± 0.36
13.87 K	8.697 ± 0.37
14.12 K	8.988 ± 0.38
14.37 K	9.37 ± 0.39
14.63 K	9.612 ± 0.4
14.89 K	9.994 ± 0.42
15 K	10.06 ± 0.33
15.14 K	10.24 ± 0.42
15.4 K	10.54 ± 0.44
15.65 K	10.85 ± 0.46
15.91 K	11.26 ± 0.47
16.17 K	11.59 ± 0.48
16.42 K	11.93 ± 0.5
16.68 K	12.31 ± 0.52
16.94 K	12.6 ± 0.52
17.2 K	12.88 ± 0.53
17.46 K	13.23 ± 0.55
17.72 K	13.64 ± 0.57
17.98 K	13.93 ± 0.57
18.24 K	14.28 ± 0.59
18.5 K	14.56 ± 0.6
18.77 K	14.98 ± 0.62
19.04 K	15.27 ± 0.63
19.3 K	15.67 ± 0.65
19.56 K	16.11 ± 0.67
19.82 K	16.35 ± 0.67
20 K	16.55 ± 0.67
20.09 K	16.75 ± 0.28
20.64 K	17.32 ± 0.29
21.4 K	18.33 ± 0.31
22.16 K	19.27 ± 0.32
22.93 K	20.25 ± 0.33
23.7 K	21.21 ± 0.35
24.47 K	22.27 ± 0.37
25 K	22.95 ± 0.42
25.24 K	23.36 ± 0.37
26.01 K	24.35 ± 0.39
26.79 K	25.26 ± 0.4
27.56 K	26.17 ± 0.41
28.34 K	27.19 ± 0.42
29.12 K	28.15 ± 0.43
29.9 K	29.13 ± 0.45
30 K	29.35 ± 0.42
30.69 K	30.2 ± 0.47
31.47 K	31.22 ± 0.47
32.25 K	32.16 ± 0.49
33.04 K	33.14 ± 0.5
33.83 K	34.04 ± 0.52
34.62 K	34.9 ± 0.52
35 K	35.34 ± 0.5
35.41 K	35.81 ± 0.54
36.19 K	36.73 ± 0.56
36.98 K	37.56 ± 0.57
37.77 K	38.4 ± 0.57
38.56 K	39.29 ± 0.59
39.36 K	40.19 ± 0.61
40 K	40.82 ± 0.58
40.15 K	40.92 ± 0.39
40.94 K	41.77 ± 0.4
41.73 K	42.6 ± 0.41
42.53 K	43.43 ± 0.42
43.32 K	44.32 ± 0.42
44.11 K	45.14 ± 0.43
44.91 K	45.95 ± 0.44
45 K	45.9 ± 0.42
45.71 K	46.69 ± 0.44
46.51 K	47.37 ± 0.45
47.31 K	48.09 ± 0.46
48.11 K	48.71 ± 0.46
48.9 K	49.39 ± 0.47
49.7 K	50.03 ± 0.47
50 K	50.55 ± 0.42
50.5 K	50.81 ± 0.48
51.3 K	51.51 ± 0.48
52.1 K	52.37 ± 0.49
52.9 K	53.35 ± 0.5
53.7 K	54.34 ± 0.51
54.5 K	55.43 ± 0.52
55.3 K	55.65 ± 0.52
56.1 K	56.39 ± 0.52
56.9 K	57.23 ± 0.53
57.7 K	57.95 ± 0.54
58.51 K	58.68 ± 0.55
59.31 K	59.42 ± 0.56
60 K	60.03 ± 0.58
60.12 K	60.15 ± 0.56
60.92 K	60.88 ± 0.57
61.73 K	61.6 ± 0.57
62.52 K	62.33 ± 0.58
63.32 K	63.58 ± 0.59
64.13 K	64.21 ± 0.6
64.93 K	64.88 ± 0.6
